From US7423048B2, “Compounds for treating fundic disaccomodation” (Janssen Pharmaceutica, N.V., priority 2000, dated 2008)
Marks after values point to notes of the source that are not given here.

Tested on: fundus of the stomach (gastric tone) in conscious dogs
Experiment: Gastric tone measured by an electronic barostat in conscious dogs
Format: in vivo, beagle dogs
Settings: 1 hour observation period, constant pressure 6 mmHg
Source text: C. Pharmacological Examples C.1 Gastric Tone Measured by an Electronic Barostat in Conscious Dogs
Gastric tone cannot be measured by manometric methods. Therefore an electronic barostat was used. This allows the study of the physiological pattern and regulation of gastric tone in conscious dogs and the influence of test-compounds on this tone.
The barostat consists of an air injection system which is connected by a double-lumen 14-French polyvinyl tube to an ultrathin flaccid polyethylene bag (maximal volume: ±700 ml). Variations in gastric tone were measured by recording changes in the volume of air within an intragastric bag, maintained at a constant pressure. The barostat maintains a constant pressure (preselected) within a flaccid air-filled bag introduced into the stomach, changing the volume of air within the bag by an electronic feedback system.
Thus the barostat measures gastric motor activity (contraction or relaxation) as changes in intragastric volume (decrease or increase resp.) at a constant intragastric pressure. The barostat consists of a strain gauge linked by an electronic relay to an air injection-aspiration system. Both the strain gauge and the injection system are connected by means of double-lumen polyvinyl tube to an ultrathin polyethylene bag. A dial in the barostat allows selection of the pressure level to be maintained within the intragastric bag.
Female beagle dogs, weighing 7-17 kg, were trained to stand quietly in Pavlov frames. They were implanted with a gastric cannula under general anaesthesia and aseptic precautions. After a median laparotomy, an incision was made through the gastric wall in longitudinal direction between the greater and the lesser curve, 2 cm above the nerves of Latarjet. The cannula was secured to the gastric wall by means of a double purse string suture and brought out via a stub wound at the left quadrant of the hypochondrium. Dogs were allowed a recovery period of two weeks.
At the beginning of the experiment, the cannula was opened in order to remove any gastric juice or food remnants. If necessary, the stomach was cleansed with 40 to 50 ml lukewarm water. The ultrathin bag of the barostat was positioned into the fundus of the stomach through the gastric cannula. In order to ensure easy unfolding of the intragastric bag during the experiment, a volume of 300-400 ml was injected twice into the bag.
When during a stabilisation period of maximum 90 minutes, the gastric volume is stable during 15 minutes at a constant pressure of 6 mmHg (about 0.81 kPa), the test compound was administered subcutaneously (S.C.), or intraduodenally (I.D.). Test compounds were screened, i.e. changes in gastric volume were measured, usually at 0.63 mg/kg. […] Table C-1 summarizes the mean maximal change in volume on relaxation of the fundus, during the 1 hour observation period after S.C. or I.D. administration of the test compound (0.63 mg/kg).

[1] = S.C. administration, 0.63 mg/kg

Row | SMILES | Maximum change in volume (mean maximal change in volume on relaxation of the fundus) [1] | further results
1 | CC1(C)CNC(=O)N(CCCNCC2Oc3cccnc3O2)C1 (racemic) [Compound 10, (±)-1-[3-[(1,3-dioxolo[4,5-b]pyridin-2-ylmethyl)amino]-propyl]tetrahydro-5,5-dimethyl-2(1H)-pyrimidinone] | 31 mL | –
2 | O=C1CN(CC(O)CNCC2COc3cccnc3O2)C(=O)N1 (centres unmarked) [Compound 13, 1-[3-[[(2,3-dihydro-1,4-dioxino[2,3-b]pyridin-3-yl)methyl]amino]-2-hydroxypropyl]-2,4-imidiazolidinedione] | – | Maximum change in volume (mean maximal change in volume on relaxation of the fundus) (I.D. administration, 0.63 mg/kg): 118 mL
3 | O=C1NCCCN1CCCNCC1COc2cccnc2O1 (racemic) [Compound 1, (±)-1-[3-[[(2,3-dihydro-1,4-dioxino[2,3-b]pyridin-3-yl)methyl]amino]propyl]tetrahydro-2(1H)pyrimidinone] | 156 mL | –
4 | O=C1CCN(CCCNC[C@H]2COc3cccnc3O2)C(=O)N1 [Compound 25, (S)-1-[3-[[(2,3-dihydro[1,4]dioxino[2,3-b]pyridin-3-yl)methyl]amino]-propyl]dihydro-2,4(1H,3H)-pyrimidinedione] | – | Maximum change in volume (mean maximal change in volume on relaxation of the fundus) (I.D. administration, 0.04 mg/kg (footnote *)): 226* ml
5 | O=C(O)C(=O)O.O=C1NCCCN1CCCNCC1CCc2cccnc2O1 (racemic) [Compound 9, (±)-1-[3-[[(3,4-dihydro-2H-pyrano[2,3-b]pyridin-2-yl)methyl]amino]propyl]tetrahydro-2(1H)-pyrimidinone ethanedioate (1:1)] | 78 mL | –
